From US9593149B2, “Amylin and calcitonin receptor agonist” (Novo Nordisk A/S, priority 2014, dated 2017) come the findings set out here.

The structures appear in SMILES notation. Numbered stars: 1 amine (or outer) side, 2 acyl side, 3 side chain; on linkers, the order of the positions; unused ones are H or OH. Side chains are listed from the residue outwards. Peptide text beside a SMILES is read from it. * marks the point of attachment. C20 diacid = O=C(O)CCCCCCCCCCCCCCCCCCC(=O)*; C18 diacid = O=C(O)CCCCCCCCCCCCCCCCC(=O)*; γGlu = O=C(O)[C@H](CCC(=O)[*:2])N[*:1]

For test [1], the target named is T1, human calcitonin (a) receptor, BHK570 cells (Homo sapiens, UniProt P30988).
T1 construct: host or cells: BHK570
T1 sequence (P30988 25-474): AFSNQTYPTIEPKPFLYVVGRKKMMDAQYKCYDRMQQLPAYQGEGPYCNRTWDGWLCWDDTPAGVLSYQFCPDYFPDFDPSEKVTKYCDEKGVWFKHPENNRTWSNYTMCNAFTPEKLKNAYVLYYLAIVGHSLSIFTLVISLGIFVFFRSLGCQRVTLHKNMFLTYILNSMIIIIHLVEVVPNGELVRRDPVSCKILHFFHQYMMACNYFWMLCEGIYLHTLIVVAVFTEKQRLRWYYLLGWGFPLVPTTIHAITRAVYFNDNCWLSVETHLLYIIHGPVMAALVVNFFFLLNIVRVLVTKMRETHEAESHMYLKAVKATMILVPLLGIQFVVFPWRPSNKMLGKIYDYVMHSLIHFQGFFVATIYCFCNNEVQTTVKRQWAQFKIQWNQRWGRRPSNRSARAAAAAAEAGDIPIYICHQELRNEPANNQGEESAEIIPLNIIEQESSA
Put plainly: Assay (II)a functional CRE-luciferase assay with albumin, human calcitonin receptor. It is filed as cell-based. As to conditions: Tested with HSA; read-out: hCTR funct. EC50. Put shortly:
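BHK570 cells stably carry a CRE-luciferase reporter and the calcitonin receptor; co-transfected RAMP-3 gives the amylin 3(a) receptor line. Cells were treated for 3 h at 37 °C in DMEM with 10% FBS and 10 mM Hepes, pH 7.4. cAMP-driven luciferase was read by LucLite luminescence after 30 min at RT.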

Test [2] addresses T2, rat amylin receptor (rat calcitonin receptor + rat RAMP 3) (Rattus norvegicus, UniProt P32214+Q9JJ73).
T2 construct: expressed in transfected cells; host or cells: BHK tk'ts 13 (transient, FuGENE 6)
T2 sequence (P32214 25-479 isoform P32214-2 limits assumed): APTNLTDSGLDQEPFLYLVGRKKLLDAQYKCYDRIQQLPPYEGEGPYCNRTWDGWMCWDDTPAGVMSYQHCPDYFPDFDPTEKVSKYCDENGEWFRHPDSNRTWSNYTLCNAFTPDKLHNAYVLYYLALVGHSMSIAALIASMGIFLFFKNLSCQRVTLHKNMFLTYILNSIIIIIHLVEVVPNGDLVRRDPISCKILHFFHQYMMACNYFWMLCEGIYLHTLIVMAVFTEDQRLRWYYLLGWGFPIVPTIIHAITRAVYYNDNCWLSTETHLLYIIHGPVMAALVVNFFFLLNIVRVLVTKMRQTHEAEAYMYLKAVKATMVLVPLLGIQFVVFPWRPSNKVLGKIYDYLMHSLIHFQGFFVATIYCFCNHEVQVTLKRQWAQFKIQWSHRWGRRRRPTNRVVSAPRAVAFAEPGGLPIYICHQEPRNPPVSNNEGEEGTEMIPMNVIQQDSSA
T2 sequence (Q9JJ73 23-147 partner): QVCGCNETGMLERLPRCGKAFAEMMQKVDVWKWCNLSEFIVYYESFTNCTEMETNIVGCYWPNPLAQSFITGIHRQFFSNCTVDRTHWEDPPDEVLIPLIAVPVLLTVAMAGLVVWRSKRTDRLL
Put plainly: Assay (VI) binding to the rat amylin receptor (membrane). Particulars: membranes; read-out: rAmylin-R binding IC50. On the procedure: The assay was performed as described above (Assay (V)—Determination of binding to the human amylin receptor) with the exception that we used membranes prepared from BHK tk'ts 13 cells that were transiently transfected with the rat calcitonin receptor rat RAMP 3 at an equimolar ratio […]. The BHK tk'ts 13 cells were transiently transfected with rat calcitonin receptor using FuGENE® 6 (Roche), according to the manufacturer's recommendations. Cells were grown in DMEM with 10% FBS and 1% Pen/Strep. Approximately 48 hours after transfection, the cells were harvested and membranes were prepared.

Test [3] deals with T3, human amylin receptor (human calcitonin receptor + human RAMP3), BHK tk'ts 13 cells (Homo sapiens, UniProt O60896+P30988).
T3 construct: expressed in transfected cells; host or cells: BHK tk'ts 13
T3 sequence (O60896 24-148, one chain of several): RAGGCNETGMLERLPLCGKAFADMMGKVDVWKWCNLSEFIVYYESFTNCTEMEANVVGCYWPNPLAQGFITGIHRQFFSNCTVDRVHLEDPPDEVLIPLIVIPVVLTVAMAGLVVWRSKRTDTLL
Put plainly: Assay (Va) binding to the human amylin receptor (whole cell). As to conditions: read-out: hAmylin-R binding IC50. On the procedure: The day before the assay the cells were Seeded into Poly-D-Lysin coated 384W Opaque White, BD BioCoat plates (10000 cells/well) and Incubated overnight at 37° C., 5% CO2, 95% humidity.

With `CC(C)C[C@H](NC(=O)[C@H](CCC(=O)O)NC(=O)[C@H](C)NC(=O)[C@@H](NC(=O)[C@H](CC(C)C)NC(=O)[C@H](CCCNC(=N)N)NC(=O)CNC(=O)[C@H](CC(C)C)NC(=O)[C@@H](NC(=O)[C@H](C)NC(=O)[C@@H](NC(=O)[C@@H](NC(=O)[C@H](CC(C)C)NC(=O)[C@H](CCC(=O)O)NC(=O)[C@H](CO)NC(=O)[C@H](C)NC(=O)CC[C@H](NC(=O)CCCCCCCCCCCCCCCCC(=O)O)C(=O)O)[C@@H](C)O)[C@@H](C)O)C(C)C)[C@@H](C)O)C(=O)N[C@@H](Cc1c[nH]cn1)C(=O)N[C@@H](CCC(=O)O)C(=O)N[C@@H](CC(C)C)C(=O)N[C@@H](CCC(=O)O)C(=O)N[C@H](C(=O)N[C@@H](CC(C)C)C(=O)N1CCC[C@H]1C(=O)N[C@@H](CCCNC(=N)N)C(=O)N[C@H](C(=O)N[C@@H](CCC(=O)O)C(=O)N[C@H](C(=O)NCC(=O)N[C@H](C(=O)NCC(=O)N[C@H](C(=O)N1CCC[C@H]1C(N)=O)[C@@H](C)O)[C@@H](C)O)[C@@H](C)O)[C@@H](C)O)[C@@H](C)O` [compound 105, [N-terminal(C18 diacid-gGlu), des1, 6T, 9V, 14T, 21E, 30T, 31G, 32T]mimylin] ({C18 diacid-γGlu}-ASELTTAVLGRLTAELHELETLPRTETGTGTP-NH2), in test [1], the EC50 amounted to 0.022 nM. Moreover, the IC50 in test [2] was determined as 0.162 nM; in test [3] it was 22.9 nM.
Turning to `CC(=O)N[C@@H](C)C(=O)N[C@@H](CO)C(=O)N[C@@H](CCCCNC(=O)CC[C@H](NC(=O)CCCCCCCCCCCCCCCCCCC(=O)O)C(=O)O)C(=O)N[C@@H](CC(C)C)C(=O)N[C@@H](CO)C(=O)N[C@H](C(=O)N[C@@H](C)C(=O)N[C@@H](C)C(=O)N[C@@H](CC(C)C)C(=O)NCC(=O)N[C@@H](CCCNC(=N)N)C(=O)N[C@@H](CC(C)C)C(=O)N[C@@H](CO)C(=O)N[C@@H](C)C(=O)N[C@@H](CCC(=O)O)C(=O)N[C@@H](CC(C)C)C(=O)N[C@@H](Cc1c[nH]cn1)C(=O)N[C@@H](CCC(=O)O)C(=O)N[C@@H](CC(C)C)C(=O)N[C@@H](C)C(=O)N[C@H](C(=O)N[C@@H](CC(C)C)C(=O)N1CCC[C@H]1C(=O)N[C@@H](CCCNC(=N)N)C(=O)N[C@H](C(=O)N[C@@H](CCC(=O)O)C(=O)N[C@H](C(=O)NCC(=O)N[C@@H](CO)C(=O)NCC(=O)N[C@@H](CO)C(=O)N1CCC[C@H]1C(N)=O)[C@@H](C)O)[C@@H](C)O)[C@@H](C)O)[C@@H](C)O` [compound 68, [N-terminal(acetyl), des1, 4K(C20 diacid-gGlu), 30S, 31G]mimylin] (Ac-ASK([γGlu-C20 diacid])LSTAALGRLSAELHELATLPRTETGSGSP-NH2), the 50% effective concentration (EC50) in test [1] stood at 0.037 nM. Also, in test [2], the 50% inhibitory concentration (IC50) amounted to 0.046 nM.
For `CC(C)C[C@H](NC(=O)[C@H](C)NC(=O)[C@H](C)NC(=O)[C@@H](NC(=O)[C@H](CO)NC(=O)[C@H](CC(C)C)NC(=O)[C@H](CCC(=O)O)NC(=O)[C@H](CO)NC(=O)[C@H](C)NC(=O)[C@H](C)NC(=O)CC[C@H](NC(=O)CCCCCCCCCCCCCCCCCCC(=O)O)C(=O)O)[C@@H](C)O)C(=O)NCC(=O)N[C@@H](CCCNC(=N)N)C(=O)N[C@@H](CC(C)C)C(=O)N[C@@H](CO)C(=O)N[C@@H](C)C(=O)N[C@@H](CCC(=O)O)C(=O)N[C@@H](CC(C)C)C(=O)N[C@@H](Cc1c[nH]cn1)C(=O)N[C@@H](CCC(=O)O)C(=O)N[C@@H](CC(C)C)C(=O)N[C@@H](C)C(=O)N[C@H](C(=O)N[C@@H](Cc1ccc(O)cc1)C(=O)N1CCC[C@H]1C(=O)N[C@@H](CCCNC(=N)N)C(=O)N[C@H](C(=O)N[C@@H](CCC(=O)O)C(=O)N[C@H](C(=O)NCC(=O)N[C@@H](CO)C(=O)NCC(=O)N[C@@H](CO)C(=O)N1CCC[C@H]1C(N)=O)[C@@H](C)O)[C@@H](C)O)[C@@H](C)O` [compound 57, [N-terminal(C20 diacid-gGlu), 1A, 23Y, 30S, 31G]mimylin] ({C20 diacid-γGlu}-AASELSTAALGRLSAELHELATYPRTETGSGSP-NH2), the EC50 in test [1] worked out at 0.051 nM. Moreover, the IC50 in test [2] was 0.025 nM; in test [3] it was 1.23 nM.
The corresponding values for `CC(C)C[C@H](NC(=O)[C@H](CCCNC(=N)N)NC(=O)CNC(=O)[C@H](CC(C)C)NC(=O)[C@@H](NC(=O)[C@H](C)NC(=O)[C@@H](NC(=O)[C@H](CO)NC(=O)[C@H](CC(C)C)NC(=O)[C@H](CCC(=O)O)NC(=O)[C@H](CO)NC(=O)[C@H](C)NC(=O)CC[C@H](NC(=O)CCCCCCCCCCCCCCCCCCC(=O)O)C(=O)O)[C@@H](C)O)C(C)C)C(=O)N[C@@H](CO)C(=O)N[C@@H](CCC(N)=O)C(=O)N[C@@H](CCC(=O)O)C(=O)N[C@@H](CC(C)C)C(=O)N[C@@H](Cc1c[nH]cn1)C(=O)N[C@@H](CCC(=O)O)C(=O)N[C@@H](CC(C)C)C(=O)N[C@@H](CCC(N)=O)C(=O)N[C@H](C(=O)N[C@@H](Cc1ccc(O)cc1)C(=O)N1CCC[C@H]1C(=O)N[C@@H](CCCNC(=N)N)C(=O)N[C@H](C(=O)N[C@@H](CCC(=O)O)C(=O)N[C@H](C(=O)NCC(=O)N[C@@H](CO)C(=O)NCC(=O)N[C@H](C(=O)N[C@@H](Cc1ccc(O)cc1)C(N)=O)[C@@H](C)O)[C@@H](C)O)[C@@H](C)O)[C@@H](C)O` [compound 114, [N-terminal(C20 diacid-gGlu), des1, 9V, 15Q, 21Q, 23Y, 30S, 31G, 32T, 33Y]mimylin] are 0.097 nM, 0.146 nM and 0.278 nM.
